Target: benzodiazepine modulatory unit of the GABAA receptor complex (3H-flunitrazepam binding, cerebral cortex membranes)
Assay: In vitro inhibition of 3H-flunitrazepam (3H-FNM) binding
Design: species or system rat
Conditions: inhibition of specific 3H-FNM (1 nM) binding, cerebral cortex membranes from male Wistar rats, 40 min at 2° C.
Description: In Vitro Inhibition of ^3H-Flunitrazepam (^3H-FNM) Binding
The GABA recognition site and the benzodiazepine modulatory unit can selectively be labelled with ^3H-flunitrazepam.
Preparations are performed at 0-4° C. unless otherwise indicated. Cerebral cortex from male Wistar rats (150-200 g) is homogenised for 5-10 sec in 20 ml Tris-HCl (30 mM, pH 7.4) using an Ultra-Turrax homogeniser. The suspension is centrifuged at 27,000×g for 15 min and the pellet is washed three times with buffer (centrifuged at 27,000×g for 10 min). The washed pellet is homogenized in 20 ml of buffer and incubated on a water bath (37° C.) for 30 min to remove endogenous GABA and then centrifuged for 10 min at 27,000×g. The pellet is then homogenized in buffer and centrifuged for 10 min at 27,000×g. The final pellet is resuspended in 30 ml buffer and the preparation is frozen and stored at −20° C.
The membrane preparation is thawed and centrifuged at 2° C. for 10 min at 27,000×g. The pellet is washed twice with 20 ml 50 mM Tris-citrate, pH 7.1 using an Ultra-Turrax homogeniser and centrifuged for 10 min at 27,000×g. The final pellet is resuspended in 50 mM Tris-citrate, pH 7.1 (500 ml buffer per g of original tissue), and then used for binding assays. Aliquots of 0.5 ml tissue are added to 25 μl of test solution and 25 μl of ^3H-FNM (1 nM, final concentration), mixed and incubated for 40 min at 2° C. Non-specific binding is determined using Clonazepam (1 μM, final concentration). After incubation the samples are added 5 ml of ice-cold buffer and poured directly onto Whatman GF/C glass fibre filters under suction and immediately washed with 5 ml ice-cold buffer. The amount of radioactivity on the filters is determined by conventional liquid scintillation counting. Specific binding is total binding minus non-specific binding.
The test value will be given as IC50 (the concentration (μM) of the test substance which inhibits the specific binding of ^3H-FNM by 50%).
Co is specific binding in control assays, and
Cx is the specific binding in the test assay.
(The calculations assume normal mass-action kinetics).

Row | Structure (SMILES) | IC50
1 | COc1ncccc1-c1cc(-n2cnc3cc(C(C)(C)O)ccc32)ccn1 [Compound 7a, 2-[1-(2′-Methoxy-[2,3′]bipyridinyl-4-yl)-1H-benzoimidazol-5-yl]-propan-2-ol] | 1.2 nM
2 | CC(C)(O)c1ccc2c(c1)ncn2-c1ccnc(-c2cccnc2Cl)c1 [Compound 7b, 2-[1-(2′-Chloro-[2,3′]bipyridinyl-4-yl)-1H-benzoimidazol-5-yl]-propan-2-ol] | 38 nM
3 | CC(C)(O)c1ccc2c(c1)ncn2-c1ccnc(-c2ccncc2F)c1 [Compound 7c, 2-[1-(3′-Fluoro-[2,4′]bipyridinyl-4-yl)-1H-benzoimidazol-5-yl]-propan-2-ol] | 7.5 nM
4 | CC(C)(O)c1ccc2c(c1)ncn2-c1ccnc(-c2ccncc2C#N)c1 [Compound 7d, 4-[5-(1-Hydroxy-1-methyl-ethyl)-benzoimidazol-1-yl]-[2,4′]bipyridinyl-3′-carbonitrile] | 26 nM

— patent publication US8492408B2, “Benzimidazole derivatives and their use for modulating the GABAA receptor complex” (Aniona APS, priority 2008, dated 2013)
